According to US11293927B2, “Screening methods for PARP modulators” (Ribon Therapeutics, Inc., priority 2018, dated 2022):
pIC50: −log10 of the molar value.

What was measured:
Type in all cases: binding
[1] = target: T1, TIPARP (Homo sapiens, UniProt Q7Z3E1); test: In vitro TR-FRET probe displacement assay (Probe C), TIPARP; details: TR-FRET displacement of Probe C, TIPARP residues 456-657
T1 construct: made in house; host or cells: E. coli
T1 sequence (Q7Z3E1 456-657): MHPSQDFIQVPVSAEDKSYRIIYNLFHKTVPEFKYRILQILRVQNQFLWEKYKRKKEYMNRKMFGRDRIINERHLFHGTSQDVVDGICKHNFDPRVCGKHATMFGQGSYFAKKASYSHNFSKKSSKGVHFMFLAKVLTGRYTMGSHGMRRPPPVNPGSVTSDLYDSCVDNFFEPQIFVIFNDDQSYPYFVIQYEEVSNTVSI
Experimental: A portion of TIPARP (residues 456 to 657 of NP_056323.2 (SEQ ID NO: 1), GenBank Accession No. NM_015508.4) was overexpressed in E. coli cells. An N-terminal fusion tag, […] (SEQ ID NO: 7), was used to purify the protein from cell lysates. The fusion tag was left on the protein for use in the probe displacement assay.
(§1) Displacement of a Probe C binding to monoPARP active sites was measured using a time-resolved fluorescence resonance energy transfer (TR-FRET) assay. 20 nL of a dose response curve of each test compound was spotted in black 384-well polystyrene proxiplates (Perkin Elmer) using a Mosquito (TTP Labtech). Reactions were performed in an 8 μL volume by adding 6 μL of the monoPARP and Probe C in assay buffer (20 mM HEPES pH=8, 100 mM NaCl, 0.1% bovine serum albumin, 2 mM DTT and 0.002% Tween20), incubating with test compound at 25° C. for 30 min, then adding 2 μL of ULight-anti 6×His and LANCE Eu-W 1024 labeled streptavidin (Perkin Elmer). Binding reactions were equilibrated at 25° C. for an additional 30 min, then read on an Envision platereader equipped with a LANCE/DELFIA top mirror (Perkin Elmer) using excitation of 320 nm and emission of 615 nm and […] with a 90 μs delay. The ratio of the 665/615 nm emission were calculated for each well to determine the amount of complex of monoPARP and Probe C in each well. […]

[2] = target: T2, PARP16 (Homo sapiens, UniProt Q8N5Y8); test: In vitro TR-FRET probe displacement assay (Probe C), PARP16; details: TR-FRET displacement of Probe C, PARP16 residues 5-279
T2 construct: made in house; host or cells: E. coli
T2 sequence (Q8N5Y8 5-279 isoform Q8N5Y8-3): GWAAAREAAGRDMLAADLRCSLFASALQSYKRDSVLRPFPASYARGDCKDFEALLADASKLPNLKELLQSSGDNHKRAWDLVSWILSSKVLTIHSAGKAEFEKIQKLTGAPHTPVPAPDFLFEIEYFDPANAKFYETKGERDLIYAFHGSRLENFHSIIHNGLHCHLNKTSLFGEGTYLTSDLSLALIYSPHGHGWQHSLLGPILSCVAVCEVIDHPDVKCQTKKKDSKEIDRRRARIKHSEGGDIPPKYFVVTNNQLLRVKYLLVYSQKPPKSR
Experimental: (§2) A portion of PARP16 (residues 5 to 279 of NP_060321.3 (SEQ ID NO: 6), GenBank Accession No. NM_017851) was overexpressed in E. coli cells. An N-terminal fusion tag, […] (SEQ ID NO: 9), was used to purify the protein from cell lysates. The fusion tag was left on the protein for use in the probe displacement assay.
as §1

[3] = target: T3, PARP10 (Homo sapiens, UniProt Q53GL7); test: In vitro TR-FRET probe displacement assay (Probe C), PARP10; parameters: made in house; host or cells: E. coli; details: TR-FRET displacement of Probe C, PARP10 residues 808-1025
T3 sequence (Q53GL7 808-1025): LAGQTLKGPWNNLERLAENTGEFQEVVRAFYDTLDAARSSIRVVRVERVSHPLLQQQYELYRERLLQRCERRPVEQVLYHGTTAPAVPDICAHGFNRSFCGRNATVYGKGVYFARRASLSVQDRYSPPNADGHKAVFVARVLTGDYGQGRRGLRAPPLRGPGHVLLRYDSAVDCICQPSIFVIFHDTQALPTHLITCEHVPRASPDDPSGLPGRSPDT
Experimental: A portion of PARP10 (residues 808 to 1025 of NP_116178.2 (SEQ ID NO: 2), GenBank Accession No. NM_032789.4) was overexpressed in E. coli cells. An N-terminal fusion tag, MAHHHHHHENLYFQSM (SEQ ID NO: 8), was used to purify the protein from cell lysates. The fusion tag was left on the protein for use in the probe displacement assay.
as §1

[4] = target: T4, PARP14 (Homo sapiens, UniProt Q460N5); test: In vitro TR-FRET probe displacement assay (Probe C), PARP14; parameters: made in house; host or cells: E. coli; details: TR-FRET displacement of Probe C, PARP14 residues 1611-1801
T4 sequence (Q460N5 1611-1801): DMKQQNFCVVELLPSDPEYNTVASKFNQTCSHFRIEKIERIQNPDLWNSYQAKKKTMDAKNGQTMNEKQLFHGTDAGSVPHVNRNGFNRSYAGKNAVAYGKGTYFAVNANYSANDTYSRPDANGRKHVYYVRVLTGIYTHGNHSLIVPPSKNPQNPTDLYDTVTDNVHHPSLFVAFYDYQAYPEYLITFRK
Experimental: as §2, with “PARP14” for “PARP16”, “1611” for “5”, “1801” for “279”, “NP_060024.2” for “NP_060321.3”, “4),” for “6),”, “NM_017554)” for “NM_017851)”
as §1

pIC50 [1]: 8.15 | pIC50 [2]: 7.00 | pIC50 [3]: 7.10 | pIC50 [4]: 7.30
Compound: O=c1[nH]ncc(N2Cc3ccc(OC4CCNCC4)cc3C2)c1C(F)(F)F [Compound A, 5-[5-(Piperidin-4-yloxy)-2,3-dihydro-1H-isoindol-2-yl]-4-(trifluoromethyl)-2,3-dihydropyridazin-3-one]
